# Experimental data published in patent US10858415B2, “Peptide mimotopes of claudin 18.2 and uses thereof” (BioNTech AG, priority 2014, dated 2020).
# What was measured:
# IMAB362 [1] = assay: Peptide ELISA, biotinylated peptides on streptavidin plates; type: binding
# Method: For the detection of IMAB362, the CLDN18.2 mimicking peptides were immobilized on streptavidin plates (Nunc) in a concentration of 0.75 μg/ml in PBS buffer for 1 hour at 37° C. Subsequently, the plate was washed three times with washing buffer (0.01% Tween-20 in PBS buffer) before it was blocked with 3% BSA in PBS overnight at 4° C. To detect IMAB362, the blocked plate was washed again three times with washing buffer followed by the addition of IMAB362 and incubation for 30 min at 37° C. After another washing step, it was incubated with an alkaline phosphatase conjugated anti-human Fc antibody (Jackson Immuno Research) for additional 30 min at 37° C. Finally, the plate was washed again before being incubated with 1.5 mg/ml of the substrate PNPP (para-nitrophenyl phosphate) in appropriate substrate buffer (1 M Diethanolamine, 0.05 mM MgCl2, 0.01% sodium azide, pH 9.8) for 30 min at RT in the dark. 3 M KOH was used to stop the enzymatic reaction. Absorbance was measured with a microplate reader (Infinite M200, Tecan). For dual wavelength analysis, 405 nm was chosen as measurement wavelength and 492 nm as reference wavelength. Absorbance values were calculated by subtraction of the measured values for the reference wavelength and for the measurement wavelength. Calculation of apparent KD values was done by fitting the data with Sigma Plot 10 using a two-site saturation binding model. […]
# IMAB362 [2] = assay: Peptide microarray incubation with IMAB362; type: binding; settings: IMAB362 1 μg/ml; percentage of fluorescence assay signal of the hit peptide
# Method: Peptides were synthesized and printed on peptidemicroarray slides essentially as described previously [Funkner, A. et al., J. Mol. Biol. 2013, 425, 1340-1362]. In brief, the peptides were synthesized using SPOT synthesis [Wenschuh, H. et al., Biopolymers 2000, 55, 188-206] cleaved from the solid support and cyclized (50% DMSO, PBS buffer pH 7-8, RT, 16 hours). Subsequently, all peptides were chemoselectively immobilized on functionalized glass slides as described earlier [Funkner, A. et al., J. Mol. Biol. 2013, 425, 1340-1362]. Each peptide was deposited on the microarray in triplicates.
# The microarrays were incubated with 1.0 or 0.1 μg/ml IMAB362 in an HS 4800 microarray processing station (Tecan) for two hours at 30° C., followed by incubation with 1.0 μg/ml fluorescently labelled secondary antibody (Alexa647 anti-human Fc antibody; Jackson Immuno Research). Washing steps were performed prior every incubation step with 0.1% Tween-20 in 1×TBS. After the final incubation step the microarrays were washed (0.05% Tween-20 in 0.1×SSC) and dried in a stream of nitrogen. Each microarray was scanned using a GenePix Autoloader 4200AL (Molecular Devices, Pixel size: 10 μm). Signal intensities were evaluated using GenePix Pro 7.0 analysis software (Molecular Devices). For each peptide, the mean of the three triplicates was calculated.
# Peptide microarrays were used for structure-activity-relationship (SAR) analysis and optimization of peptide binding affinity to IMAB362. For assay setup three variants of each cyclic hit peptide (sequences 1, 2 and 3, Table 1) were prepared differing in a) the immobilization site, b) the linker nature and c) the degree of conformational restriction (cyclic vs. linear). All peptides were chemically synthesized in a stepwise fashion from the C- to the N-terminus by the high-throughput SPOT synthesis approach [Wenschuh, H. et al., Biopolymers 2000, 55, 188-206] applying a cellulose membrane as solid support. After cleavage and isolation, the peptides were cyclised through disulfide formation between two internal Cys residues and immobilized to the microarray. Covalent attachment to the microarray was performed through a reactive moiety on either the N- or C-terminus of the peptides allowing chemoselective and directed immobilization through both ends of the peptides. Subsequently, peptide loaded microarrays were incubated with 1.0 or 0.1 μg/ml IMAB362 followed by incubation with 1 μg/ml fluorescently labelled secondary antibody, scanning and data evaluation.
# Target sequence in this assay (as listed by the source): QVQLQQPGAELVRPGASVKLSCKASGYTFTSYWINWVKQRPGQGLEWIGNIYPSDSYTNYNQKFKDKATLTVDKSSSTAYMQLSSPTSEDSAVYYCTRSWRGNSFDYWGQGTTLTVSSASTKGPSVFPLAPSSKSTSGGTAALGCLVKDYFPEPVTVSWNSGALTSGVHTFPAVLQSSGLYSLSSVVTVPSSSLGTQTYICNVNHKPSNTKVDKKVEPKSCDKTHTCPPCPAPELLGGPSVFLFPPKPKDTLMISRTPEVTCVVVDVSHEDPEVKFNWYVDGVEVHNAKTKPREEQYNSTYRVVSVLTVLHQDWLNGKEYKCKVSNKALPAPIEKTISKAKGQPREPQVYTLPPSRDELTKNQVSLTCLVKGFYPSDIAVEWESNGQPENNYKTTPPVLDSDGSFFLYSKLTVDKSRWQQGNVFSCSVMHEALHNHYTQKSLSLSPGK
# Target sequence in this assay (as listed by the source): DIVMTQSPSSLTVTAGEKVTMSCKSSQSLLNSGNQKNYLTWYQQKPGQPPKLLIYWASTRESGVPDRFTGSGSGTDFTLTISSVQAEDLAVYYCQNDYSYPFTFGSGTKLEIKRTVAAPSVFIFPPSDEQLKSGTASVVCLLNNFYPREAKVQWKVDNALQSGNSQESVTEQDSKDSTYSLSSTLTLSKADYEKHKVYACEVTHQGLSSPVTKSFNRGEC
# [3] = test system: advanced gastro-esophageal cancer; settings: multiply pre-treated late-stage patients, single agent; cited from earlier work
# [4] = In vivo pharmacokinetic analysis, serum measured by peptide ELISA with 2c mimotope peptide; settings: approximately 50 mg/kg intravenously, Balb/cJ mice
# Method: After 8, 24, 48, 72, 144, 168 and 192 hrs, blood samples were taken from two mice of each group for serum preparation. The serum samples were to be measured in the linear range of the assay (approximately 0.3-300 ng/ml). […] An IMAB362 standard row in presence of murine Balb/cJ control serum was assayed in parallel (0-25 ng/ml). The standard raw data were fitted by linear regression to calculate the antibody concentration from the mouse samples at the respective timepoint. Before the pharmakokinetic analysis, a permission for the animal experiment was obtained from the relevant local authority.
Compound,% Affinity compared to hit peptide (IMAB362 [2]) [%],other results
CC(C)[C@@H]1NC(=O)CNC(=O)[C@@H]2CCCN2C(=O)[C@H](Cc2ccc(O)cc2)NC(=O)CNC(=O)[C@H](Cc2ccc(O)cc2)NC(=O)[C@H](Cc2c[nH]cn2)NC(=O)[C@@H](NC(=O)[C@H](C)NC(=O)CCC(=O)NCCCOCCOCCOCCCNC(=O)CCCC[C@@H]2SC[C@@H]3NC(=O)N[C@@H]32)CSSC[C@@H](C(=O)NCC(=O)O)NC1=O [Peptide 2c],,"binding curves of IMAB362 to peptide when antibody diluted with human serum (IMAB362 [1]; up to 20% human serum, background signal slightly increased at high serum concentrations): looked similar; binding of IMAB362 to peptide in the presence of mouse serum (IMAB362 [1]; up to 20% mouse serum): almost not affected"
ACHLGYPGRCG [Cyclopeptide-GGS-K(X) Seq. 3],100,
ACHLGYPGRCG [X-Ttds-Linearpeptide Seq. 3],0.1,
ACHLNYPGYCG [Cyclopeptide-GGS-K(X) Seq. 1],100,
ACHLNYPGYCG [X-Ttds-Linearpeptide Seq. 1],0,
ACHYSYPGVCG [Cyclopeptide-GGS-K(X) Seq. 2],100,
ACHYSYPGVCG [X-Ttds-Linearpeptide Seq. 2],0,
IMAB362: highly tumor-specific monoclonal IgG1 antibody directed against Claudin 18 isoform 2 (CLDN18.2),,antitumoral activity [3]: antitumoral activity; tolerability [3]: have shown tolerability; IMAB362 concentration in mice ([4]; after 8 hours): approximately 800 μg/ml; IMAB362 concentration in mice ([4]; at the end of the study (192 hrs)): approximately 350 μg/ml
